In patent publication US10173991B2, “Sulfone amide linked benzothiazole inhibitors of endothelial lipase” (BRISTOL-MYERS SQUIBB COMPANY, priority 2014, dated 2019):

target: Endothelial lipase (EL) (Homo sapiens (Human), UniProt Q9Y5X9); assay: Endothelial lipase (EL) enzymatic assay with fluorescent substrate A10070 in DMPG vesicles; type: biochemical
Summary of the method: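 EL from conditioned medium of HT-1080 cells engineered to overexpress endogenous EL; HL partially purified from conditioned medium of HL-overexpressing COS cells. Enzyme preincubated with compound 30 min at 37° C in 50 mM HEPES pH 8.0, 50 mM NaCl, 1 mM CaCl2; DMPG vesicles carrying FRET substrate (0.11 mole fraction) then added.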

Endothelial lipase (EL), sequence (Q9Y5X9 21-500): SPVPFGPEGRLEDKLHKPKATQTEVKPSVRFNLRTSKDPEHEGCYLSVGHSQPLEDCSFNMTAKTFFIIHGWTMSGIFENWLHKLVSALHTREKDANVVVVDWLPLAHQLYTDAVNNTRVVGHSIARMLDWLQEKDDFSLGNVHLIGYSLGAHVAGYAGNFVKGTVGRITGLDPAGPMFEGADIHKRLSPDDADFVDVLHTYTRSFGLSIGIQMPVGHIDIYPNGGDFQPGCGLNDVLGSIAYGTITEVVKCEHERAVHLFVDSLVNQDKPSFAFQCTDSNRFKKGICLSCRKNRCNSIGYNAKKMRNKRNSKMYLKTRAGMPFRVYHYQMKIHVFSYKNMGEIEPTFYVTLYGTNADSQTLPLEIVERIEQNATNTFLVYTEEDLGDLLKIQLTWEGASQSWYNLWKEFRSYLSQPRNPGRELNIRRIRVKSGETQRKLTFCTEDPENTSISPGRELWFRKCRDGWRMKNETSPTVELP

Row | Compound | IC50
1 | COc1ncccc1-c1cc2sc(C(C(=O)NCC(=O)NC3CC3)S(C)(=O)=O)nc2cc1F (stereo not shown) [Example 322, N-[(cyclopropyl-carbamoyl)methyl]-2-[5-fluoro-6-(2-methoxypyridin-3-yl)-1,3-benzothiazol-2-yl]-2-methanesulfonyl-acetamide] | 5 nM
2 | CS(=O)(=O)C(C(=O)NCC(=O)NC1CC1)c1nc2cc(F)c(-c3cncc(F)c3)cc2s1 (stereo not shown) [Example 323, N-[(cyclopropyl-carbamoyl)methyl]-2-[5-fluoro-6-(5-fluoropyridin-3-yl)-1,3-benzothiazol-2-yl]-2-methanesulfonyl-acetamide] | 23 nM
3 | COc1cncc(-c2cc3sc(C(C(=O)NCC(=O)NC4CC4)S(C)(=O)=O)nc3cc2F)c1 (stereo not shown) [Example 324, N-[(cyclopropyl-carbamoyl)methyl]-2-[5-fluoro-6-(5-methoxypyridin-3-yl)-1,3-benzothiazol-2-yl]-2-methanesulfonyl-acetamide] | 15 nM
4 | CS(=O)(=O)C(C(=O)NCC(=O)NC1CC1)c1nc2cc(F)c(-c3ccnc(C(F)(F)F)c3)cc2s1 (stereo not shown) [Example 325, N-[(cyclopropyl-carbamoyl)methyl]-2-{5-fluoro-6-[2-(trifluoromethyl)pyridin-4-yl]-1,3-benzothiazol-2-yl}-2-methanesulfonyl-acetamide] | 15 nM
5 | CS(=O)(=O)C(C(=O)NCC(=O)NC1CC1)c1nc2cc(F)c(-c3cccnc3C(F)(F)F)cc2s1 (stereo not shown) [Example 326, N-[(cyclopropyl-carbamoyl)methyl]-2-{5-fluoro-6-[2-(trifluoromethyl)pyridin-3-yl]-1,3-benzothiazol-2-yl}-2-methanesulfonyl-acetamide] | 65 nM
6 | CS(=O)(=O)C(C(=O)NCC(=O)NC1CC1)c1nc2cc(F)c(-c3cccc(C(N)=O)c3)cc2s1 (stereo not shown) [Example 327, 3-[2-({[(cyclopropyl-carbamoyl)methyl]carbamoyl} (methanesulfonyl)methyl)-5-fluoro-1,3-benzothiazol-6-yl]benzamide] | 19 nM
7 | CS(=O)(=O)C(C(=O)NCC(=O)NC1CC1)c1nc2cc(F)c(-c3ccc(C(N)=O)c(Cl)c3)cc2s1 (stereo not shown) [Example 328, 2-chloro-4-[2-({[(cyclopropyl-carbamoyl)methyl]carbamoyl} (methanesulfonyl)methyl)-5-fluoro-1,3-benzothiazol-6-yl]benzamide] | 22 nM
8 | COCCS(=O)(=O)C(C(=O)NCC(=O)NC1CC1)c1nc2ccc(-c3ccc(C(N)=O)cc3)cc2s1 (stereo not shown) [Example 329, 4-[2-({[(cyclopropyl-carbamoyl)methyl]carbamoyl}(2-methoxyethane-sulfonyl)methyl)-1,3-benzothiazol-6-yl]benzamide] | 46 nM
9 | CS(=O)(=O)C(C(=O)NCC(=O)NC1CC1)c1nc2cc(F)c(-c3ccc(C(N)=O)cc3)cc2s1 (stereo not shown) [Example 331, 4-[2-({[(cyclopropyl-carbamoyl)methyl]carbamoyl} (methanesulfonyl)methyl)-5-fluoro-1,3-benzothiazol-6-yl]benzamide] | 4 nM
10 | COCCS(=O)(=O)C(C(=O)NCC(=O)NC1CC1)c1nc2cc(-c3ccc(CNC(C)=O)cc3)ccc2s1 (stereo not shown) [Example 332, N-[(cyclopropyl-carbamoyl)methyl]-2-{5-[4-(acetamidomethyl)phenyl]-1,3-benzothiazol-2-yl}-2-(2-methoxyethane-sulfonyl)acetamide] | 10 nM
11 | CS(=O)(=O)C(C(=O)NCC(=O)NC1CC1)c1nc2cc(-c3ccc(F)nc3)ccc2s1 (stereo not shown) [Example 333, N-[(cyclopropyl-carbamoyl)methyl]-2-[5-(6-fluoropyridin-3-yl)-1,3-benzothiazol-2-yl]-2-methanesulfonyl-acetamide] | 13 nM
12 | COCCNC(=O)c1ccc(-c2ccc3sc(C(C(=O)NCC(=O)NC4CC4)S(=O)(=O)CCOC)nc3c2)cc1 (stereo not shown) [Example 334, 4-[2-({[(cyclopropyl-carbamoyl)methyl]carbamoyl}(2-methoxyethane-sulfonyl)methyl)-1,3-benzothiazol-5-yl]-N-(2-methoxyethyl) benzamide] | 15 nM
13 | COCCS(=O)(=O)C(C(=O)NCC(=O)NC1CC1)c1nc2cc(-c3cncnc3)ccc2s1 (stereo not shown) [Example 335, N-[(cyclopropyl-carbamoyl)methyl]-2-(2-methoxyethane-sulfonyl)-2-[5-(pyrimidin-5-yl)-1,3-benzothiazol-2-yl]acetamide] | 16 nM
14 | COCCS(=O)(=O)C(C(=O)NCC(=O)NC1CC1)c1nc2cc(-c3ccn(C)c(=O)c3)ccc2s1 (stereo not shown) [Example 336, N-[(cyclopropyl-carbamoyl)methyl]-2-(2-methoxyethane-sulfonyl)-2-[5-(1-methyl-2-oxo-1,2-dihydropyridin-4-yl)-1,3-benzothiazol-2-yl]acetamide] | 21 nM
15 | COCCS(=O)(=O)C(C(=O)NCC(=O)NC1CC1)c1nc2cc(-c3ccc(C(=O)N4CCOCC4)cc3)ccc2s1 (stereo not shown) [Example 337, N-[(cyclopropyl-carbamoyl)methyl]-2-(2-methoxyethane-sulfonyl)-2-{5-[4-(morpholine-4-arbonyl)phenyl]-1,3-benzothiazol-2-yl}acetamide] | 38 nM
16 | COCCS(=O)(=O)C(C(=O)NCC(=O)NC1CC1)c1nc2cc(-c3ccc(COC)cc3)ccc2s1 (stereo not shown) [Example 338, N-[(cyclopropyl-carbamoyl)methyl]-2-(2-methoxyethane-sulfonyl)-2-{5-[4-(methoxymethyl)phenyl]-1,3-benzothiazol-2-yl}acetamide] | 42 nM
17 | COCCS(=O)(=O)C(C(=O)NCC(=O)NC1CC1)c1nc2cc(-c3ccccc3)ccc2s1 (stereo not shown) [Example 339, N-[(cyclopropyl-carbamoyl)methyl]-2-(2-methoxyethane-sulfonyl)-2-(5-phenyl-1,3-benzothiazol-2-yl)acetamide] | 215 nM
18 | COCCS(=O)(=O)C(C(=O)NCC(=O)NC1CC1)c1nc2ccc(-c3ccc4c(c3)CNC4=O)cc2s1 (stereo not shown) [Example 340, N-[(cyclopropyl-carbamoyl)methyl]-2-(2-methoxyethane-sulfonyl)-2-[6-(1-oxo-2,3-dihydro-1H-isoindol-5-yl)-1,3-benzothiazol-2-yl]acetamide] | 9 nM
19 | COCCS(=O)(=O)C(C(=O)NCC(=O)NC1CC1)c1nc2ccc(-c3ccc4c(c3)COC4=O)cc2s1 (stereo not shown) [Example 341, N-[(cyclopropyl-carbamoyl)methyl]-2-(2-methoxyethane-sulfonyl)-2-[6-(1-oxo-1,3-dihydro-2-benzofuran-5-yl)-1,3-benzothiazol-2-yl]acetamide] | 11 nM
20 | COCCS(=O)(=O)C(C(=O)NCC(=O)NC1CC1)c1nc2cc(-c3ccn(C)c(=O)c3)c(F)cc2s1 (stereo not shown) [Example 342, N-[(cyclopropyl-carbamoyl)methyl]-2-[6-fluoro-5-(1-methyl-2-oxo-1,2-dihydropyridin-4-yl)-1,3-benzothiazol-2-yl]-2-(2-methoxyethane-sulfonyl)acetamide] | 23 nM
21 | COCCS(=O)(=O)C(C(=O)NCC(=O)NC1CC1)c1nc2ccc(-c3ccnc(OC)c3F)cc2s1 (stereo not shown) [Example 343, N-[(cyclopropyl-carbamoyl)methyl]-2-[6-(3-fluoro-2-methoxypyridin-4-yl)-1,3-benzothiazol-2-yl]-2-(2-methoxyethane-sulfonyl)acetamide] | 48 nM
22 | COCCS(=O)(=O)C(C(=O)NCC(=O)NC1CC1)c1nc2ccc(-c3ccc4c(c3)C(=O)NC4)cc2s1 (stereo not shown) [Example 344, N-[(cyclopropyl-carbamoyl)methyl]-2-(2-methoxyethane-sulfonyl)-2-[6-(3-oxo-2,3-dihydro-1H-isoindol-5-yl)-1,3-benzothiazol-2-yl]acetamide] | 98 nM
